Test in all cases: MTT assay for 7-day toxicity assay
Common to all, as to type: cell-based
(Tetrazolium dyes change colour on reduction, which living cells bring about.)

Assay [1] concerns Glioma SNB19V (MGMT−). As to conditions: for GI50: Glioma SNB19V (MGMT−). As to the method:
(§1) The cell culture techniques were carried out in a Class II microbiological safety cabinet which was swabbed with 70% IMS in distilled water before each use. […] MRC-5 cells were cultured in EMEM. Cells were grown in a humidified incubator containing 5% CO2 at 37° C. Cells were sub-cultured when growth exceeded approximately 80% confluence, normally twice weekly. The medium was aspirated from the flask and approximately 0.8 mL trypsin-EDTA 1× solution added. The cells were re-incubated at 37° C. until they visibly detached from the flask. The cell suspension was then re-suspended in 5 mL medium and 0.5-1 mL of the cell suspension was transferred to a new flask (25 cm^2) with 7 mL culture medium. The cells were further incubated at 37° C. incubator. Cells were disposed after passage nearly 30 times in order to minimize phenotypic drift. New batches of cells were taken from liquid nitrogen storage by thawing rapidly (37° C. water bath) and re-suspension in a 25 cm^2 flask with 10 mL of culture medium. Two passages were allowed to resume normal growth. For long-term maintenance, viable cells at 60-80% confluence were detached by minimum amount of trypsin/EDTA and re-suspended in sterile filtered freezing medium (95% FBS, 5% DMSO), transferred to sterile cryogenic vials, and frozen overnight at −20° C. followed by −80° C. for 1-2 days and stored in liquid nitrogen for long term storage.
(§2) Most test compounds, including temozolomide, were prepared as stock solution (100 mM) in DMSO and stored at −20° C. for not more than 6 months.
(§3) Glioma cell lines, SNB19 and U373, both MGMT transfected (i.e., SNB19M and U373M) and vector controls (i.e., SNB19V and U373V); colorectal carcinoma cell lines, HCT116, HT29, and DLD1; melanoma cell line, SKMEL-28; breast cell line, MCF-7; and normal human fetal lung fibroblast cell line, MRC-5; were harvested at 60-80% confluence—during the logarithmic phase of growth.
(§4) Following harvesting, cells in suspension were gently syringed through a 23 gauge needle to obtain a near-single cell suspension. The desired cell seeding densities were used and added into 96-well plates in 180 μL culture medium if only one test compound was to be added, or 160 μL if two test compounds were to be added in combination, which were allowed to attach at 37° C. (5% CO2) overnight. For the 7 day assay, the cell seeding density for different cell lines was as follows: SNB19V, SNB19M: 650 cells/well; U373V, U373M: 650 cells/well; SNB19VR, U373VR: 650 cells/well; HCT116, DLD-1, SKMEL-28, MRC-5, MCF-7: 400 cells/well.
(§5) The two peripheral lanes were used as blank wells (cell free) and filled with 200 μL of medium in order to minimise medium evaporation from the plate. A separate time zero (T0) plate was set up alongside other plates. Serial dilutions in tissue culture medium of a 100 mM stock of test compound in DMSO were prepared immediately before each assay to ten times the final concentrations required, and then 20 μL was added to each well (200 μL total media per well) to achieve final concentrations of 0.5 μM, 1 μM, 5 μM, 10 μM, 50 μM, 100 μM, 500 μM, and 1000 μM. A minimum of four wells received the same test compound concentration. To control wells, including those in the T0 plate, 20 μL of medium was added. […] A separate plate treated in the same way, but free of test compound, was used as a measure of cell viability at the time of drug addition (day 0).
(§6) After incubation at 37° C., 5% CO2 for 7 days (or immediately for the day 0 plate), cell viability was quantified using the MTT assay. 50 μL of sterile filtered MIT (3-(4,5-dimethylthiazol-2-yl)-2,5-diphenyltetrazolium bromide) (2 mg/mL in phosphate buffered saline) were added to each well (final concentration 0.4 mg/mL) and the plates were re-incubated for 4 hours to allow metabolic conversion of MTT by dehydrogenases in viable cells to insoluble formazan crystals.
(§7) The intensity of absorbance is directly proportional to cell viability.

In assay [2] the test system is Glioma SNB19M (MGMT+). As to conditions: for GI50: Glioma SNB19M (MGMT+). As to the method: as §1, §2, §3, §4, §5, §6, §7
Assay [3] has as its system Glioma U373M (MGMT+). As to conditions: Glioma U373M (MGMT+), 7-day MTT, single determinations, read-out: GI50. As to the method: as §1, §2, §3, §4, §5, §6, §7
Assay [4] has as its system Glioma U373V (MGMT low). To be noted: Glioma U373V (MGMT low). As to the method: as §1, §2, §3, §4, §5, §6, §7
The mark [5] stands for this setting: 168 h, 7-day MTT, single determinations, read-out: GI50.
Setting [6] is: 7-day MTT, single determinations, read-out: GI50.

“And” between values parts separate entries of the source, which are not always exact repeats. Identical values can stand only once. Counter-ions that a name gives are not always drawn. Like-named read-outs stand apart in the source and are kept apart here.

For `CC(c1ccc(Br)cc1)n1nnc2c(C(N)=O)ncn2c1=O` (racemic) [BB-005, (+/−) 3-(-1-(4-Bromophenyl)ethyl)-8-carbamoylimidazotetrazin-4-one], the GI50 – broadly, the concentration at which growth is held to half of that of the control – in assay [1] (setting [5]) is 42 µM; in assay [1] (setting [6]), 80.2 µM and 81 µM and 70.2 µM.

For `COc1ccc(Cn2nnc3c(C(N)=O)ncn3c2=O)cc1OC` [AA-005, 3-(3,4-dimethoxybenzyl)-4-oxo-3,4-dihydroimidazo[5,1-d][1,2,3,5]tetrazine-8-carboxamide], the concentration for 50% growth inhibition (GI50) was 218 µM in assay [1] (setting [5]); 114 µM in assay [1] (setting [6]); 282 µM in assay [2] (setting [5]); 232 µM in assay [2] (setting [6]); 301 µM in assay [3] (168 h); 224 µM in assay [3]. For the same molecule, the results for the GI50 in assay [4] (setting [5]) and in assay [4] (setting [6]) were 197 µM and 259 µM, respectively.

Regarding `COc1ccc([C@@H](C)n2nnc3c(C(N)=O)ncn3c2=O)cc1` [BB-003, (R)-3-(−1-(4-Methoxyphenyl)ethyl)-8-carbamoylimidazotetrazin-4-one], the 50% growth inhibitory concentration (GI50) was found to be 55.8 µM in assay [1] (setting [5]); 93.7 µM in assay [1] (setting [6]); 72.3 µM in assay [2] (setting [5]); 97.1 µM in assay [2] (setting [6]); 71 µM in assay [4] (setting [5]); 138 µM in assay [4] (setting [6]).

For the molecule `NC(=O)c1ncn2c(=O)n(Cc3ccsc3)nnc12` [CC-001, 4-oxo-3-(thiophen-3-ylmethyl)-3,4-dihydroimidazo[5,1-d][1,2,3,5]tetrazine-8-carboxamide], the GI50 in assay [1] (setting [5]) was found to be 79.6 µM; in assay [1] (setting [6]), 117 µM; in assay [2] (setting [5]), 208 µM; in assay [2] (setting [6]), 135 µM; in assay [3] (168 h), 198 µM; in assay [3] it was 232 µM. Also, the 50% growth inhibitory concentration (GI50) turned out to be 206 µM in assay [4] (setting [5]) and 160 µM in assay [4] (setting [6]).

For `NC(=O)c1ncn2c(=O)n(Cc3cccs3)nnc12` [CC-002, 4-oxo-3-(thiophen-2-ylmethyl)-3,4-dihydroimidazo[5,1-d][1,2,3,5]tetrazine-8-carboxamide], the GI50 in assay [1] (setting [5]) worked out at 76.7 µM; in assay [1] (setting [6]) it was 52 µM; in assay [2] (setting [5]), 63.6 µM; in assay [2] (setting [6]), 54.7 µM; in assay [3] (168 h), 96.8 µM; in assay [3] it was 52.2 µM. Moreover, the GI50 came out at 149 µM in assay [4] (setting [5]) and 81.4 µM in assay [4] (setting [6]).

With `Cc1noc(Cn2nnc3c(C(N)=O)ncn3c2=O)n1` [CC-003, 3-(3-Methyl-[1,2,4]oxadiazol-5-ylmethyl)-4-oxo-3,4-dihydro-imidazo[5,1-d][1,2,3,5]tetrazine-8-carboxylic acid amide], the GI50 in assay [1] (setting [5]) worked out at 208 µM; in assay [1] (setting [6]), 176 µM; in assay [2] (setting [5]), 198 µM; in assay [2] (setting [6]), 208 µM; in assay [3] (168 h) it was 196 µM; in assay [3] it was 391 µM.

With `Cc1cc(Cn2nnc3c(C(N)=O)ncn3c2=O)on1` [CC-004, 3-(3-Methyl-isoxazol-5-ylmethyl)-4-oxo-3,4-dihydro-imidazo[5,1-d][1,2,3,5]tetrazine-8-carboxylic acid amide], the GI50 in assay [1] (setting [5]) stood at 38 µM; in assay [1] (setting [6]) it was 54.9 µM; in assay [3] (168 h), 29.3 µM.

Regarding `NC(=O)c1ncn2c(=O)n(Cc3c[nH]nn3)nnc12` [CC-005, 4-Oxo-3-(1H-[1,2,3]triazol-4-ylmethyl)-3,4-dihydro-imidazo[5,1-d][1,2,3,5]tetrazine-8-carboxylic acid amide], the 50% growth inhibitory concentration (GI50) in assay [1] (setting [5]) was found to be 357 µM; in assay [1] (setting [6]), 239 µM; in assay [2] (setting [5]) it was 257 µM; in assay [2] (setting [6]), 409 µM; in assay [3] (168 h), 334 µM; in assay [3], 330 µM. The figures for the 50% growth inhibitory concentration (GI50) in assay [4] (setting [5]) and in assay [4] (setting [6]) were 261 µM and 400 µM, respectively.

Consider `CC#CCn1nnc2c(C(N)=O)ncn2c1=O` [EE-002, 3-But-2-ynyl-4-oxo-3,4-dihydro-imidazo[5,1-d][1,2,3,5]tetrazine-8-carboxylic acid amide], for which the GI50 in assay [1] (setting [5]) was determined as 33.5 µM; in assay [1] (setting [6]), 45.8 µM; in assay [2] (setting [5]), 38.1 µM; in assay [2] (setting [6]), 37.1 µM; in assay [3] (168 h), 41.1 µM; in assay [3] it was 25.1 µM. Moreover, the GI50 was determined as 42.1 µM in assay [4] (setting [5]) and 31.1 µM in assay [4] (setting [6]).

As to `NC(=O)c1ncn2c(=O)n(CC3CCCCC3)nnc12` [GG-001, 3-Cyclohexylmethyl-8-carbamoylimidazotetrazin-4-one], the GI50 in assay [2] (setting [5]) was 831 µM; in assay [2] (setting [6]) it was 445 µM; in assay [4] (setting [5]) it was 717 µM; in assay [4] (setting [6]), more than 1000 µM.

In the case of `NC(=O)c1ncn2c(=O)n(CC3CC3)nnc12` [GG-003, 3-Cyclopropylmethyl-8-carbamoylimidazotetrazin-4-one], the values for the GI50 in assay [2] (setting [5]), in assay [2] (setting [6]) and in assay [4] (setting [5]) were 152 µM, 293 µM and 386 µM, respectively.

With `NC(=O)c1ncn2c(=O)n(C3CCNCC3)nnc12` [HH-001, 3-Piperidin-4-yl-8-carbamoylimidazotetrazin-4-one hydrobromide], the 50% growth inhibitory concentration (GI50) in assay [1] (setting [5]) amounted to 167 µM; in assay [1] (7-day MTT, single determinations, hydrobromide, read-out: GI50) it was 190 µM; in assay [3] (168 h), 72 µM; in assay [3] (hydrobromide), 115 µM.

Turning to `NC(=O)CCn1nnc2c(C(N)=O)ncn2c1=O` [JJ-004, 3-(8-Carbamoyl-oxoimidazo[5,1-d][1,2,3,5]tetrazin-3(4H)-yl)propanamide], the concentration for 50% growth inhibition (GI50) in assay [1] (setting [5]) stood at 348 µM; in assay [1] (setting [6]) it was 294 µM; in assay [2] (setting [5]), 417 µM; in assay [2] (setting [6]) it was 281 µM.

For the molecule `CC(C)(C)C(=O)OCn1nnc2c(C(N)=O)ncn2c1=O` [LL-004, 2,2-Dimethyl-propionic acid 8-carbamoyl-4-oxo-imidazo[5,1-d][1,2,3,5]tetrazin-3-ylmethyl ester], the GI50 in assay [1] (setting [5]) is 47.2 µM; in assay [1] (setting [6]), 35.9 µM and 51.9 µM.

On to `CC(C)(C)OC(=O)Cn1nnc2c(C(N)=O)ncn2c1=O` [LL-006, (8-Carbamoyl-4-oxo-imidazo[5,1-d][1,2,3,5]tetrazin-3-yl)-acetic acid tert-butyl ester], for which the GI50 in assay [2] (168 h, 7-day MTT, single determinations) was 64 µM; in assay [2] (7-day MTT, single determinations), 60.5 µM and 87.2 µM.

As to `CCOP(=O)(Cn1nnc2c(C(N)=O)ncn2c1=O)OCC` [VV-001, (8-Carbamoyl-4-oxo-imidazo[5,1-d][1,2,3,5]tetrazin-3-ylmethyl)-phosphonic acid diethyl ester], the GI50 is 73.6 µM and 63.4 µM in assay [1]; 102 µM and 85.6 µM in assay [2]; 306 µM and 174 µM in assay [4]. The “activity compared with TMZ, in words” value in assay [1] (SNB19V glioma cell line) and in assay [2] (SNB19M glioma cell line) was “more active than TMZ” throughout.

The record behind these values is patent US8450479B2, “3-substituted-4-oxo-3,4-dihydro-imidazo[5,1-d][1,2,3,5-tetrazine-8-carboxylic acid amides and their use” (Pharminox Limited, priority 2007, dated 2013).
